According to patent publication US20250043299A1, “POINT MUTATIONS THAT BOOST AROMATIC AMINO ACID PRODUCTION AND CO2 ASSIMILATION IN PLANTS” (Wisconsin Alumni Research Foundation, priority 2021, published 2025):
Where two headings read alike, the source gives them in different places.

Assays:
Assay type in all cases: biochemical
[1] = target: T1, DHS1^WT (Arabidopsis thaliana, UniProt P29976); test: DHS enzyme assay (colorimetric), recombinant DHS1^WT; details: recombinant enzyme; read-out: IC50 of effector molecule on DHS1^WT
T1 construct: without the predicted plastid transit peptide (amino acid residues; 49-525, 34-507, and 52-527, respectively); made in house; host or cells: E. coli Rosetta-2
T1 sequence (P29976 49-525): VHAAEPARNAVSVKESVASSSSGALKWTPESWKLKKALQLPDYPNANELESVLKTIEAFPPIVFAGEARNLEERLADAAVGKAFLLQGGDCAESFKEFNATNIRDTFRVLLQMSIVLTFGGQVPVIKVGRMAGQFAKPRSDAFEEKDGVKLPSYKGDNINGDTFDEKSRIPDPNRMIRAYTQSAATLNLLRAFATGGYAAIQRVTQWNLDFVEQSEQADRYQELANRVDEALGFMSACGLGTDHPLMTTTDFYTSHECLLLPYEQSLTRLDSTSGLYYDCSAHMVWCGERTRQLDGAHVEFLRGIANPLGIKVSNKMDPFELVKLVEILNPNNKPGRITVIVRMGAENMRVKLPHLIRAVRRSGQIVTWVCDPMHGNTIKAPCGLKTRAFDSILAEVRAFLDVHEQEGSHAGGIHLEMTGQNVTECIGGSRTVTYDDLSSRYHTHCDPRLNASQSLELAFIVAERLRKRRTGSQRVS
Method: (§1) To generate recombinant DHS proteins the pET28a vectors carrying the A. thaliana DHS1 (AtDHS1), AtDHS2, or AtDHS3 WT sequence without the predicted plastid transit peptide (amino acid residues; 49-525, 34-507, and 52-527, respectively) were expressed in E. coli Rosetta-2 cells and purified using Ni-affinity chromatography, exactly as was conducted previously (9). To generate DHS proteins with individual sota mutations via site-directed mutagenesis, these pET28a plasmid templates were diluted by 500-fold, mixed with 0.04 U/μL Phusion DNA polymerase (Thermo Scientific), 0.2 mM deoxynucleoside triphosphates (dNTPs), 1× Phusion reaction buffer (Thermo Scientific), and 0.5 μM forward and reverse mutagenesis primers (Table 10). The PCR reaction was run using the following protocol: 98° C. for 30 s followed by 20 cycles of 10 s at 98° C., 20 s at 70° C., 4.5 min at 72° C. with a final extension at 72° C. for 10 min. The PCR products were purified using a QIAquick Gel Extraction Kit (QIAGEN), treated with FastDigest DpnI (Thermo Scientific) to digest methylated plasmid template DNA for 20 min at 37° C., and transformed into E. coli cells. The mutagenized pET28a plasmids were sequenced to confirm that no errors were introduced during the mutagenesis process.
(§2) The DHS enzyme assays were conducted using the colorimetric method that we recently described (9). Briefly, the enzyme solution (7.7 μl) containing 50 mM Hepes (pH 7.4) was preincubated with an effector molecule(s) at room temperature for 15 min. For assays using recombinant protein and enzyme fractions isolated from plant leaves, 0.01 to 0.1 μg and approximately 50 μg of proteins were used, respectively. After adding 0.5 μl of 0.1 M dithiothreitol, the samples were further incubated at room temperature for 15 min. During these incubations, the substrate solution containing 50 mM Hepes (pH 7.4), 2 mM MnCl2, 4 mM E4P, and 4 mM PEP at final concentration was preheated at 37° C. The enzyme reaction was started by adding 6.8 μl of the substrate solution, then incubated at 37° C. for 30 min, and terminated by adding 30 μl of 0.6 M trichloroacetic acid. After a brief centrifugation, 5 μl of 200 mM NaIO4 (sodium meta-periodate) in 9 N H3PO4 was added to oxidize the enzymatic product and to incubate at 25° C. for 20 min. To stop the oxidation reaction, 20 μl of 0.75 M NaAsO2 (sodium arsenite), which was dissolved in 0.5 M Na2SO4 and 0.05 M H2SO4, was added and immediately mixed. After 5 min of incubation at room temperature, one-third of the sample solution was transferred to a new tube to be mixed with 50 μl of 40 mM thiobarbituric acid and incubated at 99° C. for 15 min in a thermal cycler. The mixture was added to 600 μl of cyclohexanone in eight-strip solvent-resistant plastic tubes, mixed vigorously, and centrifuged at 4500 g for 3 min to separate water- and cyclohexanone-based layers for the extraction off the developed pink chromophore. The absorbance of the pink supernatant was read at 549 nm with the microplate reader (Infinite 200 PRO, TECAN) to calculate DAHP production with the molar extinction coefficient at 549 nm (ε=549 nm) of 4.5×10^4 M^−1 cm^−1. Reaction mixtures with boiled enzymes were run in parallel and used as negative controls to estimate the background signal.

[2] = target: T2, DHS1^B4 (Arabidopsis thaliana, UniProt P29976, G244R); test: DHS enzyme assay, recombinant DHS1^B4; details: recombinant enzyme; for IC50: read-out: IC50 of effector molecule on DHS1^B4
T2 construct: without the predicted plastid transit peptide (amino acid residues; 49-525, 34-507, and 52-527, respectively); made in house; host or cells: E. coli
Method: as §1, §2

[3] = target: T3, DHS2^A4 (Arabidopsis thaliana, UniProt Q00218, G222S); details: for IC50: read-out: IC50 of effector molecule on DHS2^A4
T3 construct: without the predicted plastid transit peptide (amino acid residues; 49-525, 34-507, and 52-527, respectively); made in house; host or cells: E. coli
T3 sequence (Q00218 34-507 G222S): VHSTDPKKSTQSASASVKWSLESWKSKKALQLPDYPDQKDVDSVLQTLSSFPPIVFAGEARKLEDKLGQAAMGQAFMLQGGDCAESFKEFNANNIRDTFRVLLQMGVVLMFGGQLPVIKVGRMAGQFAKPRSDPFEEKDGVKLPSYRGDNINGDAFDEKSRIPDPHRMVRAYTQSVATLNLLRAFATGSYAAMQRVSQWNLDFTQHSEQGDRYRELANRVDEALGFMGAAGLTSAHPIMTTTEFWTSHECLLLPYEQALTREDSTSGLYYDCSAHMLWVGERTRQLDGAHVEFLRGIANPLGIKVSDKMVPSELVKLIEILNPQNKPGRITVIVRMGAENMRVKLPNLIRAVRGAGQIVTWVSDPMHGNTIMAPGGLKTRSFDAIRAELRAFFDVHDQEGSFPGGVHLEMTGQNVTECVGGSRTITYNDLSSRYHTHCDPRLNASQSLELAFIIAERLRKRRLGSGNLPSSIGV
Method: as §1, §2

[4] = target: T4, DHS2^A11 (Arabidopsis thaliana, UniProt Q00218, A224T); test: DHS enzyme assay, recombinant DHS2^A11; details: for IC50: read-out: IC50 of effector molecule on DHS2^A11
T4 construct: without the predicted plastid transit peptide (amino acid residues; 49-525, 34-507, and 52-527, respectively); made in house; host or cells: E. coli
T4 sequence (Q00218 34-507 A224T): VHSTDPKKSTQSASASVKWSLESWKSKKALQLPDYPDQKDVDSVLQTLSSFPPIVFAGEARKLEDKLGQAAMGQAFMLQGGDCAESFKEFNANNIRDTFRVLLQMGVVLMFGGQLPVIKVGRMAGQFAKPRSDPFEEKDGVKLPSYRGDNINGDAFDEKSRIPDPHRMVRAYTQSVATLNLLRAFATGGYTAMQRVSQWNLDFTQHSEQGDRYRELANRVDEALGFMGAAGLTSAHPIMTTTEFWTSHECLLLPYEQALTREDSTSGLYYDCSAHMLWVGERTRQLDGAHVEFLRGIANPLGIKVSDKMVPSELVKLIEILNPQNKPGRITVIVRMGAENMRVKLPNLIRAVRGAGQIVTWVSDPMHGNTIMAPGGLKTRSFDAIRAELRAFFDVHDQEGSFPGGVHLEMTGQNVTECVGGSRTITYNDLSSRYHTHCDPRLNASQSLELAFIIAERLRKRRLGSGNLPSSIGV
Method: as §1, §2

[5] = target: T5, DHS2^F1 (Arabidopsis thaliana, UniProt Q00218, L136F); test: DHS enzyme assay, recombinant DHS2^F1; details: for IC50: read-out: IC50 of effector molecule on DHS2^F1
T5 construct: without the predicted plastid transit peptide (amino acid residues; 49-525, 34-507, and 52-527, respectively); made in house; host or cells: E. coli
T5 sequence (Q00218 34-507 L136F): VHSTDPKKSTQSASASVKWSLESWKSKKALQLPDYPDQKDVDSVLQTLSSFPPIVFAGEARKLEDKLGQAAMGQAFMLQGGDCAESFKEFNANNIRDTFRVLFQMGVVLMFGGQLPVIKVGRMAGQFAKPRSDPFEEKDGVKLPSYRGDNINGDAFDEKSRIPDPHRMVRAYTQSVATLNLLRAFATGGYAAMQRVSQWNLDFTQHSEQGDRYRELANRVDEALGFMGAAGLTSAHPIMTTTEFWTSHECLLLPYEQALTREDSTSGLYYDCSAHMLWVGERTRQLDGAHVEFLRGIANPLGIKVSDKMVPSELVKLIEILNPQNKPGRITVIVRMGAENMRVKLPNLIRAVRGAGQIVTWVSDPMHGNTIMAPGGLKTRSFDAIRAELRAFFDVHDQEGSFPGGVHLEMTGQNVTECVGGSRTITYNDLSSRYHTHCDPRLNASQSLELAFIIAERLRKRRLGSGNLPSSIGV
Method: as §1, §2

[6] = target: T6, Arabidopsis thaliana DHS1 (SEQ ID NO:1) variant DHS1^B4 (sotaB4), G244R (Arabidopsis thaliana, UniProt P29976, G244R); test: DHS enzyme assay with effector, DHS1 sotaB4
T6 construct: without the predicted plastid transit peptide (amino acid residues; 49-525, 34-507, and 52-527, respectively); made in house; host or cells: E. coli
Method: as §1, §2

[7] = target: T7, Arabidopsis thaliana DHS2 (SEQ ID NO:2) variant DHS2^A4 (sotaA4), G222S (Arabidopsis thaliana, UniProt Q00218, G222S); test: biochemical
T7 construct: without the predicted plastid transit peptide (amino acid residues; 49-525, 34-507, and 52-527, respectively); made in house; host or cells: E. coli
T7 sequence (Q00218 34-507 G222S): as the sequence (Q00218 34-507 G222S) above
Method: as §1, §2

[8] = target: T8, Arabidopsis thaliana DHS2 (SEQ ID NO:2) variant DHS2^A11 (sotaA11), A224T (Arabidopsis thaliana, UniProt Q00218, A224T); test: DHS enzyme assay with effector, DHS2 sotaA11
T8 construct: without the predicted plastid transit peptide (amino acid residues; 49-525, 34-507, and 52-527, respectively); made in house; host or cells: E. coli
T8 sequence (Q00218 34-507 A224T): as the sequence (Q00218 34-507 A224T) above
Method: as §1
(§3) The DHS enzyme assays were conducted using the colorimetric method that we recently described (9). Briefly, the enzyme solution (7.7 μl) containing 50 mM Hepes (pH 7.4) was preincubated with an effector molecule(s) at room temperature for 15 min. For assays using recombinant protein and enzyme fractions isolated from plant leaves, 0.01 to 0.1 μg and approximately 50 μg of proteins were used, respectively. After adding 0.5 μl of 0.1 M dithiothreitol, the samples were further incubated at room temperature for 15 min. […] The absorbance of the pink supernatant was read at 549 nm with the microplate reader (Infinite 200 PRO, TECAN) to calculate DAHP production with the molar extinction coefficient at 549 nm (ε=549 nm) of 4.5×10^4 M^−1 cm^−1. […]

[9] = target: T9, Arabidopsis thaliana DHS2 (SEQ ID NO:2) variant DHS2^F1 (sotaF1), L136F (Arabidopsis thaliana, UniProt Q00218, L136F); test: DHS enzyme assay with effector, DHS2 sotaF1
T9 construct: without the predicted plastid transit peptide (amino acid residues; 49-525, 34-507, and 52-527, respectively); made in house; host or cells: E. coli
T9 sequence (Q00218 34-507 L136F): as the sequence (Q00218 34-507 L136F) above
Method: as §1, §3

[10] = target: Arabidopsis thaliana DHS3 (AtDHS3), wild type (DHS3^WT), SEQ ID NO:3 (Arabidopsis thaliana, UniProt Q9SK84); test: DHS enzyme assay with effector, Arabidopsis DHS3 WT
Arabidopsis thaliana DHS3 (AtDHS3), wild type (DHS3^WT), SEQ ID NO:3, sequence (Q9SK84 entry or part of it): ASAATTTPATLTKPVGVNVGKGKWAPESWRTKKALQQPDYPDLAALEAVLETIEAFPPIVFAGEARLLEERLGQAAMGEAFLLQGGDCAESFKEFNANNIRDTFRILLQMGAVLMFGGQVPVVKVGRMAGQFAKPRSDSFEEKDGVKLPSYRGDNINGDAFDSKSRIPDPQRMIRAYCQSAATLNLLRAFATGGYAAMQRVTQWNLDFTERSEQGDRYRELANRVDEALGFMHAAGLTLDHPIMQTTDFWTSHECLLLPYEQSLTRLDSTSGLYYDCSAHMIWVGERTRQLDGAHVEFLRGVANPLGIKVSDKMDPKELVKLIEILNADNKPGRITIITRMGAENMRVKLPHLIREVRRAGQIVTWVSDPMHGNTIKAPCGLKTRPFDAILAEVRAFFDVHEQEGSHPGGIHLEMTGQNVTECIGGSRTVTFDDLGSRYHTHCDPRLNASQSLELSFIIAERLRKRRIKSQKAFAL
Method: as §1, §3

[11] = target: Arabidopsis thaliana DHS3 (SEQ ID NO:3) variant DHS3^G1 (sotaG1), A240T (Arabidopsis thaliana, UniProt Q9SK84, A240T); test: DHS enzyme assay with effector, DHS3 sotaG1
Arabidopsis thaliana DHS3 (SEQ ID NO:3) variant DHS3^G1 (sotaG1), A240T, sequence (Q9SK84 entry or part of it A240T): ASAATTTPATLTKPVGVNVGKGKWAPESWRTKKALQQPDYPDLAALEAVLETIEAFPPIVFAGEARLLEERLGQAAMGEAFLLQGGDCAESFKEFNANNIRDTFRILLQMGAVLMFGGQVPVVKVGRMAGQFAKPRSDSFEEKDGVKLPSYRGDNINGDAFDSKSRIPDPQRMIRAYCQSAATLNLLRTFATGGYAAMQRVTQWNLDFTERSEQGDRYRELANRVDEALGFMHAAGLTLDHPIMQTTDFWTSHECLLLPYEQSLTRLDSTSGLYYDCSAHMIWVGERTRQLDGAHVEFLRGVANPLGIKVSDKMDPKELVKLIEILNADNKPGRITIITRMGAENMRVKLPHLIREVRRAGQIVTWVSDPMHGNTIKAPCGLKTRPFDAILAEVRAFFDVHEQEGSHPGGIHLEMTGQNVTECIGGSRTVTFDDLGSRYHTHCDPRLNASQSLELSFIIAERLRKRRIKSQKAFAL
Method: as §1, §3

[12] = target: Arabidopsis thaliana DHS3 (SEQ ID NO:3) variant DHS3^H1 (sotaH1), G114R (Arabidopsis thaliana, UniProt Q9SK84, G114R); test: DHS enzyme assay with effector, DHS3 sotaH1
Arabidopsis thaliana DHS3 (SEQ ID NO:3) variant DHS3^H1 (sotaH1), G114R, sequence (Q9SK84 entry or part of it G114R): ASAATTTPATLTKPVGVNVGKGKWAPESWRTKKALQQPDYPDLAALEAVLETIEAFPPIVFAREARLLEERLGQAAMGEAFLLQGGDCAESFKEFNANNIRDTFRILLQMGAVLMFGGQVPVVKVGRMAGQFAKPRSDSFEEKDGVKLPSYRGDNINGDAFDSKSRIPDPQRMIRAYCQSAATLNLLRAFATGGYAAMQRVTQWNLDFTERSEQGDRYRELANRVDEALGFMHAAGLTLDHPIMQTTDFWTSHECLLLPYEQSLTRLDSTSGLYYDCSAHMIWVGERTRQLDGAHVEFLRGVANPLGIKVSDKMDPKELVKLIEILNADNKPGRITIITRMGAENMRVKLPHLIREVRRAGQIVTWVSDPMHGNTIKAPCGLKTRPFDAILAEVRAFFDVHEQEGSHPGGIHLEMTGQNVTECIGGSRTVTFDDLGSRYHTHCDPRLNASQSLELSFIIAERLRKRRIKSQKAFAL
Method: as §1, §3

[13] = DHS3^WT, 4 mM E4P, 4 mM PEP, pH 7.4, 37° C., read-out: IC50

Structure (SMILES)	IC50 [1]	IC50 [2]	IC50 ([3]; recombinant enzyme)	IC50 ([4]; recombinant enzyme)	IC50 ([5]; recombinant enzyme)	IC50 [6]	IC50 [7]	IC50 [8]	IC50 [9]	IC50 [10]	IC50 [11]	IC50 [12]	IC50 [10, 13]	IC50 of effector molecule on DHS1^B4 [2]	inhibition of DHS2^A4 activity ([3]; effector up to 1 mM)	IC50 of effector molecule on DHS2^A4 ([3]; recombinant enzyme)	inhibition of DHS2^A11 activity ([4]; effector up to 1 mM)	IC50 of effector molecule on DHS2^A11 ([4]; recombinant enzyme)	inhibition of DHS2^F1 activity ([5]; effector up to 1 mM)	IC50 of effector molecule on DHS2^F1 ([5]; recombinant enzyme)
O=C(O)Cc1cc(O)ccc1O [HGA, homogentisate]	253 µM	2990 µM	212 µM	242 µM	788 µM	2990 µM	212 µM	242 µM	788 µM	102 µM	375 µM	405 µM	–	–	–	–	–	–	–	–
O=C(O)C(=O)Cc1ccc(O)cc1 [HPP, 4-Hydroxyphenylpyruvate]	–	835 µM	143 µM	58.6 µM	321 µM	835 µM	143 µM	58.6 µM	321 µM	–	915 µM	903 µM	516 µM	–	–	–	–	–	–	–
O=C(O)C(=O)Cc1c[nH]c2ccccc12 [IPA, indole-3-pyruvate]	241 µM	5000 µM	73.4 µM	90.6 µM	74 µM	5000 µM	73.4 µM	90.6 µM	74 µM	–	273 µM	108 µM	25.3 µM	–	–	–	–	–	–	–
N[C@@H](Cc1c[nH]c2ccccc12)C(=O)O [Trp, tryptophan]	–	–	–	–	–	–	–	–	–	–	–	–	–	Not inhibited	not inhibited	Not inhibited	not inhibited	Not inhibited	not inhibited	Not inhibited
